In patent publication US9982026B2, “Compositions and methods for assessing and treating adrenal diseases and disorders” (YALE UNIVERSITY, priority 2011, dated 2018):
Substitutions are numbered along the chain they refer to. “Also recorded” adds a separate entry of the source.

Assays:
[1] = biological target: KCNJ3/KCNJ5WT cotransfected with the dopamine D2 receptor in 293T cells (Homo sapiens, UniProt P14416); details: 1 μM dopamine, current amplitudes at −100 mV, before vs after addition, n=4
Experimental: Representative whole-cell recordings of 293T cells cotransfected with KCNJ3/KCNJ5WT and the dopamine D2 receptor are shown. The pipette holding potential was 0 mV before clamping, and the cell was clamped from −100 to 60 mV with 20 mV increments before (left) and after (right) addition of 1 μM dopamine. The extracellular solution contained 140 mM NaCl, 5 mM KCl, 1.8 mM MgCl2, 1.8 mM CaCl2, and 10 mM HEPES, pH 7.4, while the intracellular solution contained 140 mM KCl, 4 mM MgCl2, 1 mM CaCl2, 1 mM EGTA, and 5 mM HEPES, pH 7.4. […] (FIG. 12B) Mean±SEM of current amplitudes measured at −100 mV before (control) and after addition of dopamine as in FIG. 12A (n=4).
293T cells were transfected with plasmid DNA using TransIT®-293 Transfection Reagent (Mirus) according to the manufacturer's instructions. Empty vector was used as a control. Cells were examined one day after transient transfection. Standard perforated whole-cell patch clamp recordings were performed on GFP-positive cells using an Axopatch 200A (Axon Instruments) amplifier. […]
Cells were cotransfected with 0.8 μg wild-type or mutant KCNJ5 and 0.5 μg KCNJ3 cDNA. […] Endogenous currents of 293T cells transfected with empty vector were measured from −100 to 60 mV. […] Data were analyzed by a combination of Axon Clampfit9.2 (Molecular Devices) and SigmaPlot (Jandel Scientific) programs. Data from 3-7 cells were analyzed for each construct. […]

[2] = tested on: KCNJ3 plus mutant KCNJ5 in 293T cells; assay: Whole-cell patch clamp of KCNJ3/KCNJ5 heterotetramers, Ba2+ block; format: cell-based, human; details: 1 mM BaCl2 in extracellular solution; mutant channels G151R, L168R, T158A
Experimental: (§1) FIG. 3A depicts the results of representative whole-cell recordings of 293T cells transfected with empty vector or KCNJ3 plus WT or mutant KCNJ5. […] Middle row: 1 mM BaCl2 was added. Bottom row: 140 mM choline chloride was substituted for extracellular NaCl. FIG. 3B depicts the current-voltage relationships from cells expressing indicated constructs (n=3 to 7 for each construct). Reversal potentials in control conditions are indicated. […] FIG. 3C depicts that the K+:Na+ permeability ratios calculated from the reversal potentials show loss of ion selectivity of the mutant channels. Data in FIGS. 3B and 3C are shown as mean±SEM.
(§2) Empty vector was used as a control. Cells were examined one day after transient transfection.
(§3) 1 mM BaCl2 was used to block Kir channels. […] All data are shown as mean±SEM.

[3] = biological target: T1, KCNJ5 WT homotetramers in 293T cells (Homo sapiens, UniProt P48544); assay: Whole-cell patch clamp of KCNJ5 homotetramers, Ba2+ block; format: cell-based; details: 1 mM BaCl2 in extracellular fluid, symmetric high K+ solutions
T1 construct: host or cells: 293T
T1 sequence (P48544 1-419): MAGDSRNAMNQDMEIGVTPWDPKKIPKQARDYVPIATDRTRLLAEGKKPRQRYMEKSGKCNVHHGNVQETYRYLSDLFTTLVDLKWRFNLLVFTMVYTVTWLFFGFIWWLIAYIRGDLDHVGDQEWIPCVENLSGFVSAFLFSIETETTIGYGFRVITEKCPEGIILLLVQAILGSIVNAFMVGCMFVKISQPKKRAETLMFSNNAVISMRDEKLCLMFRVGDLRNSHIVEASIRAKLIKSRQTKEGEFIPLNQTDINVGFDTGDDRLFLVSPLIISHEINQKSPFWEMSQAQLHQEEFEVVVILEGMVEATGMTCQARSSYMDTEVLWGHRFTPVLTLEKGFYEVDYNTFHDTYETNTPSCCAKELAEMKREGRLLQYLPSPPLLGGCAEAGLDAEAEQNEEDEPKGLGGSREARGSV
Experimental: Because of low current amplitude of homotetrameric channels, currents were measured under symmetrical high Na+ or high K+ conditions, which increases current amplitude (Owen et al., 1999, Exp Physiol 84:471-488; Andreoli, et al., Eds., Molecular Biology of Membrane Transport Disorders (Plenum Press, New York, ed. 2, 1996), chap. 5) (FIGS. 13A-13D); reversal potentials and permeability ratios were determined using physiological solutions (FIGS. 13E, 13F). (FIG. 13A) Representative whole-cell recordings showing K+ and Na+ currents in 293T cells transfected with KCNJ5, KCNJ5G151R, KCNJ5L168R, and KCNJ5T158A. […] (FIGS. 13B, 13C) Current-voltage relationships from cells expressing the indicated constructs with symmetric high K+ or high Na+ solutions as in FIG. 13A. […] Relative permeabilities of K+:Na+ were determined in physiologic solutions as described in FIG. 13E. (FIG. 13E) Reversal potential of 293T cells transfected with WT or mutant KCNJ5 using physiological solutions. […] The reversal potential for the homotetramers was determined by a ramp protocol ranging from −100 to +100 mV after forming a high resistance seal. […]
To analyze homomeric wild-type or mutant KCNJ5 currents, 1 μg of cDNA was transfected. […] For each construct, currents were measured in two conditions. […] The reversal potential was determined using a ramp protocol ranging from −100 to +100 mV after forming a high resistance seal. […]

[4] = biological target: T2, KCNJ3/KCNJ5WT in 293T cells (Homo sapiens, UniProt P48544+P48549); assay: Whole-cell patch clamp of KCNJ3/KCNJ5 heterotetramers, Ba2+ block; format: cell-based; details: 1 mM BaCl2 in extracellular solution; listed as Ba2+
T2 construct: #SC118769 (KCNJ3); host or cells: 293T
T2 sequence (P48544 1-419): T1 sequence (P48544 1-419)
T2 sequence (P48549 1-501): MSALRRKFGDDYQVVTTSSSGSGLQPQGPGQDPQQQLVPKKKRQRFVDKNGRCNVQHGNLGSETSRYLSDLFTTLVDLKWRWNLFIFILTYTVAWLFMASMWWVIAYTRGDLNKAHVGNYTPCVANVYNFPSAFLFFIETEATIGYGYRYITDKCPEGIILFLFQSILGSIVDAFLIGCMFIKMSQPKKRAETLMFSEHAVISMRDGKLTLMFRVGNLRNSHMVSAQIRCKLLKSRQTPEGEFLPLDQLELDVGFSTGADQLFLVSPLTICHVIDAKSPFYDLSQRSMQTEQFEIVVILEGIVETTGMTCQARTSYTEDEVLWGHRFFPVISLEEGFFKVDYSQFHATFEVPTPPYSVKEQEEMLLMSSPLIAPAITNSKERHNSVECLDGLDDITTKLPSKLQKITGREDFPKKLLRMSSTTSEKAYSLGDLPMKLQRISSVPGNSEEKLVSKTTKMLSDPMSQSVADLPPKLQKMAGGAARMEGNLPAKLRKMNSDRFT
Experimental: as §1, §2, §3

[5] = biological target: T3, KCNJ3/KCNJ5G151R in 293T cells (Homo sapiens, UniProt P48544+P48549, G151R); assay: as above; format: cell-based; details: 1 mM BaCl2 in extracellular solution
T3 construct: #SC118769 (KCNJ3); host or cells: 293T
T3 sequence (P48544 1-419 G151R): T1 sequence (P48544 1-419) with G151R
T3 sequence (P48549 1-501): T2 sequence (P48549 1-501)
Experimental: as §1, §2, §3

Sequence of KCNJ3/KCNJ5WT cotransfected with the dopamine D2 receptor in 293T cells (P14416 whole entry): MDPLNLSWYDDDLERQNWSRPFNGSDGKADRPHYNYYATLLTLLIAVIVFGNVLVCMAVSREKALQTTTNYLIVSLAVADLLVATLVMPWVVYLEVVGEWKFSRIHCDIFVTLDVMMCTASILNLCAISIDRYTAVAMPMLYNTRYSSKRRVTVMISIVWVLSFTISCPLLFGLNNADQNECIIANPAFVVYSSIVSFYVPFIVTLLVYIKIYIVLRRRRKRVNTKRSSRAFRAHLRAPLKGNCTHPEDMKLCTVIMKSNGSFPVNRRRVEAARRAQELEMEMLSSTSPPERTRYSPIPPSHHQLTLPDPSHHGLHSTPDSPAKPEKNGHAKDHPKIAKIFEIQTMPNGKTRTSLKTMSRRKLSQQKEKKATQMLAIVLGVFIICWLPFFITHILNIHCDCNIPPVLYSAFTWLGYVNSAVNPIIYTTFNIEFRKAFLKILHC

increase of current [1]	SMILES	inhibition of current by Ba2+ [2]	inhibition of channel activity [3]	inhibition of current by Ba2+ [4]	inhibition of current by Ba2+ [5]
~50%	Cl.NCCc1ccc(O)c(O)c1 [Dopamine, dopamine hydrochloride]	–	–	–	–
–	[Ba+2].[Cl-].[Cl-] [BaCl2]	variable inhibition	inhibited WT channel activity	inhibited; also recorded: inhibits the WT channel	loss of inhibition
